“Also recorded” adds a separate entry of the source.
Tests used:
E. coli ATCC 25922 = assay: MIC of peptide combinations (synergy); assay type: cell-based, Escherichia coli; conditions: equimolar combination with oncocin or P9, Figure 3
Procedure: (§1) Peptides were assessed for their MIC against various bacterial strains. Peptides were serially diluted at two x final concentration across a 96 well plate with the final well containing no peptide and control lanes of no antibacterial agent, and lanes of no bacteria or antibacterial agent. All dilutions were in sterile MHB. Each bacterial strain was grown overnight before inoculation of a fresh culture in the morning of assay, the culture was allowed to grow until OD600 = ∼1.0 before dilution to achieve 2 × 10^6 CFU/ml based of the equations 2e+7e^(2.9218∗OD600) for E. coli and 2e+7e^(2.5537∗OD600). Bacteria were added 1:1 to wells containing the serially diluted peptide(s) and were allowed to grow for 6 h, in regards to E. coli, or 24 h, in regards to S. aureus, before measuring OD620 on a plate reader. Bacterial growth per well was determined using the following equation: Bacterial growth %= (OD600 sample−OD600 negative control)/(OD600 positive control−OD600 negative control)×100
(§2) The MIC breakpoint was determined using GraphPad PRISM observing for the concentration at which growth surpassed 10%.
One potential reason is that these peptides are unable to access the cytoplasm of the cell. Consequently, the synergistic capacity of PP30, attacin-C, and antibacterial napin with oncocin or P9 was examined (Figure 3).
(A) MIC assessment of oncocin with/without antibacterial napin/PP30/attacin-C. (B) MIC assessment of P9 with/without antibacterial napin/PP30/attacin-C. Each peptide is present in equimolar concentration with the individual concentration shown in the X axis.

DnaK [1] = conditions: peptide 300 µM; 0.3 µM DnaK; 20 mM TRIS, 150 mM KCl, 5 mM MgCl2, 1 mM ATP, pH 7.5; 1 h at 37°C; Malachite Green, A620; result in words (Figure 1)
Procedure: Peptides were assessed for their capacity to inhibit the ATPase activity of DnaK by a colorimetric assay. Peptide at 300 µM concentration were assayed in 100 µl format where each reaction contained 0.3 µM of DnaK in DnaK assay buffer (20 mM TRIS, 150 mM KCl, 5 mM MgCl2, 1 mM ATP, pH 7.5). After 60 min, 20 µl samples were taken (3 x per reaction) for assessment by Malachite Green Phosphate assay kit (Sigma—MAK307). The samples were added to 80 µl of Milli-Q water in a 96 well plate, before adding 20 µl of staining solution, and incubated at room temperature for 30 min before measuring A620 on a plate reader ([Zahn et al., 2013]). A negative control was included for each peptide where the same assay conditions are used in the absence of DnaK. The relative activity of DnaK in the presence of each of the putative DnaK binding peptides was assessed using the following equation: DnaKacitivity %= (OD620 sample−OD620 negative control)/(OD620 positive control−OD620 negative control) × 100
We selected four potential PrAMPs from the list of newly identified PrAMPs for evaluation. […] Each was chemically synthesized, purified, and exchanged into HCl salt prior to investigation of antimicrobial properties (Supplementary Information, Supplementary Figure S1). The ability of the potential PrAMPs to modulate the activity of DnaK was assessed at 300 µM in vitro through a colorimetric assay with a known binder of DnaK, oncocin, as a positive control peptide (Figure 1).
Each was incubated with DnaK for 1 h at 37°C and the free phosphate generated was detected with a Malachite Green-based stain. Activities are reported in % activity relative to DnaK positive and DnaK negative samples with constraints at 0% activity. All peptides were assayed at 300 µM. One-way ANOVA followed by Dunnett’s multiple comparisons test was performed to compare the control (DnaK) to each of the peptides, p < 0.05 (*) and p < 0.001 (**) are indicated.

[2] = test system: Escherichia coli ATCC 25922 and E. coli BAA 3051; assay: Antibacterial MIC assay, E. coli; assay type: cell-based; conditions: MHB, serial dilution up to 128 µM, 6 h growth, OD read-out, MIC = concentration at which growth surpassed 10%; result in words
Procedure: (§3) For the antimicrobial assays, the strains used were as follows: Staphylococcus aureus ATCC 29213, Escherichia coli ATCC 25922 and E. coli BAA 3051.
as §1, §2
FIGURE 2 Minimum inhibitory concentration of potential PrAMPs. Each of the potential PrAMPs were assayed for MIC against E. coli ATCC 25922 (A), E. coli BACC 3051 (B), and S. aureus 29213 (C), up to 128 µM in MHB media.

bacterial membrane = conditions: ref Shen et al., 2010; cited from earlier work
Excerpt: This dual mode of action of PP30, membrane lysis and DnaK […], is novel and unreported for other native PrAMPs.

DnaK [3] = conditions: ref Krizsan et al., 2014; cited from earlier work
Excerpt: Recently, we assessed a new set of criteria for PrAMPs and scanned the DRAMP database (http://dramp.cpu-bioinfor.org/) to detect novel PrAMPs based on similarity to known DnaK inhibitors ([Welch et al., 2020]). […] Here, we undertook screening of these putative new ...

[4] = test system: Staphylococcus aureus ATCC 29213; assay: Antibacterial MIC assay, S. aureus; assay type: cell-based; conditions: MHB, up to 128 µM, 24 h growth, OD read-out; result in words
Procedure: as §3, §1, §2
FIGURE 2 Minimum inhibitory concentration of potential PrAMPs. […]

Bacillus subtilis = conditions: Gram-positive bacterium; ref Ngai and Ng, 2004; cited from earlier work
Procedure: (§4) It is interesting to note that the peptides tested which inhibit DnaK are in fact not antimicrobial at concentrations of 128 µM or less. This may be because the peptides act in vivo as part of a complex multi-peptide cocktail with synergistic effects.

E. coli = conditions: Gram-negative bacterium; ref Ngai and Ng, 2004; cited from earlier work
Procedure: as §4

Sequence	Synergy in combination treatment (MIC) (E. coli ATCC 25922)	Effect on DnaK activity (ATP hydrolysis), % activity relative to DnaK positive and negative samples (DnaK [1])	Antimicrobial activity (MIC assessment) against E. coli [2]	Membrane-lytic action (bacterial membrane)	DnaK binding (DnaK [3])	Antimicrobial activity (MIC assessment) against S. aureus [4]	Activity against Bacillus subtilis (Bacillus subtilis)	Activity against E. coli (E. coli)
QRPYTQPLIYYPPPPTPPRIYRA [Attacin-C, predicted PrAMP from the DRAMP database, chemically synthesized 23-residue peptide]	no synergistic effects	inhibit DnaK activity	lack of direct antimicrobial activity	–	–	–	–	–
YVPPVQKPHPNGPKFPTFP [PP30, predicted PrAMP from the DRAMP database, chemically synthesized 19-residue peptide]	no synergistic effects	inhibit DnaK activity	has not however resulted in observable MICs; also recorded: lack of direct antimicrobial activity	membrane-lytic	–	–	–	–
RFIPPILRPPVRPPFRPPFRPPFRPPPIIRFFGG [P9, predicted PrAMP from the DRAMP database, chemically synthesized 34-residue peptide]	–	increases the ATP hydrolysis of DnaK	potent antimicrobial activity	–	–	–	–	–
VDKPPYLPRPRPPRRIYNR [Oncocin]	–	–	–	–	DnaK binder	–	–	–
PAQPFRFPKHPQGPQTRPPI [Antibacterial napin, predicted PrAMP from the DRAMP database, chemically synthesized 20-residue peptide]	no synergistic effects	inhibit DnaK activity	inactive; also recorded: lack of direct antimicrobial activity	–	–	inactive	active	inactive
